# Laboratory results from patent US8268856B2, “Method to use compositions having antidepressant anxiolytic and other neurological activity and compositions of matter” (priority 2007, dated 2012).
# Experiments:
# [1] = test system: Mycobacterium tuberculosis; test: Activity against Mycobacterium tuberculosis
# [2] = test system: HIV-1; test: Activity against HIV-1
# [3] = test system: HCV; test: Activity against HCV
# [4] = test system: male Swiss Webster mice; test: Locomotor activity test, Swiss Webster mice; type: in vivo, mouse; conditions: IP, photobeam interruptions, versus vehicle
# Description: (§1) Locomotor Activity and the FST. To evaluate the isolated compounds for antidepressant-like activity, male Swiss Webster mice (Harlan, Indianapolis, Ind.) (25-30 g weight) were used. Animals were housed in groups of five with a 12 h light/12 h dark cycle. Food and water were provided at libitum. All procedures involving animals were performed as approved by the Institutional Animal Care and Use Committee of the University of Mississippi. Animals were randomly divided into groups (n=6-10/group). Each group was injected IP with either the compound (1-20 mg/kg), desipramine (20 mg/kg), or vehicle (saline, 10% ethanol or 10% ethanol/1% DMSO). Following injection, locomotor activity was monitored using an automated activity monitoring system (San Diego Instruments, San Diego, Calif.). Each mouse was placed in a Plexiglas enclosure and locomotor activity was recorded as the number of photobeam interruptions for 30 min after drug injection. The activity for the last ten min was quantified and analyzed. Immediately at the end of the locomotor session, individual mice were subjected to the FST. The mice were individually placed in a clear plastic cylinder (23 cm high, 10 cm internal diameter) filled with deionized water (8 cm high) at 25° C. The mice were recorded with a video camera (positioned at about 30 cm above the cylinder) for a total of 6 min. The total period of immobility during the last 4 min was timed by three independent observers. The mean immobility time was then calculated. A mouse was judged to be immobile when it remained afloat, making only minimal movements to keep its head above water.
# Effect of select compounds on locomotor activity. Since reductions in immobility time is the primary criterion to assess antidepressant like activity in both the FST and TST, it is crucial to confirm that the effects observed in both tests are not attributed to specific stimulant action of the tested compounds, which would be reflected as enhancement of the locomotor activity. Accordingly, the effect of tested compounds on locomotor activity was evaluated using an automated activity monitoring system.
# [5] = test system: serotonin receptors; test: Affinity to serotonin receptors (receptor binding panel); design: species or system human or rodent
# Description: Evaluation of binding affinity of isolated compounds to serotonin receptors. In vitro testing of isolated compounds was completed using a small panel of receptor binding assays and then validated in a comprehensive panel by the NIMH Psychoactive Drug Screening Program. Pharmacological and functional screening of isolated molecules was performed on cloned human or rodent CNS receptors, channels, and transporters. Hu, J-F., et al. New Antiinfective and Human 5-HT2 Receptor Binding Natural and Semisynthetic Compounds from the Jamaican Sponge Smenospongia aurea. 65 Jour. of Nat. Prod. 476-80 (2002).
# (§2) Porsolt R D, et al. Behavioral Despair In Mice: A Primary Screening Test for Antidepressants, 229 Arch. Int. Pharmacodyn. 327-36 (1977). […] In order to control for false positives, as has been previously observed with psychostimulants, Cryan, J., et al. Assessing Substrates Underlying The Behavioral Effects Of Antidepressants Using The Modified Rat Forced Swimming Test. 29 Neurosci Biobehav Rev. 547-69 (2005) locomotor activity of the animals was monitored using an automated photobeam activity monitoring system. Lucki. I. The Forced Swimming Test As A Model For Core And Component Behavioral Effects Of Antidepressant Drugs. 8 Behav. Pharmacol. 522-32 (1997).
# [6] = test system: male Swiss Webster mice; test: Porsolt forced swim test (FST); type: in vivo, mouse; conditions: male Swiss Webster mice, IP, immobility during last 4 min of 6 min swim, versus vehicle
# Description: as §1
# For the FST, immobility times of the three independent rates were averaged for each mouse and data were analyzed using one way analysis of variance (ANOVA) followed by Bonferroni Multiple comparison posthoc tests to determine statistical differences from the corresponding vehicle control. Chick distress vocalization data were analyzed by two-way repeated measures ANOVA, one-way ANOVA and simple effects analyses with post-hoc comparisons conducted using Fisher's LSD test. p-Values less than 0.05 were considered statistically significant.
# as §2
structure (smiles),measurement,setting,value
"Cc1nccc2c1C(C)(C)Nc1cc(Br)ccc1-2 [Veranamine, 8-bromo-4,5,5-trimethyl-5,6-dihydrobenzo[c][2,7]naphthyridine]",activity against Mycobacterium tuberculosis,[1],not active
same,activity against HIV-1,[2],not active
same,activity against HCV,[3],not active
same,effect on locomotor activity,[4],not the consequence of its stimulant activity
same,affinities to serotonin receptors,[5],moderate affinities
same,antidepressant-like activity / effect on immobility time in FST,[6],potent antidepressant activity at the dose of 20 mg/kg
